Experimental data from PMC7496931, “Activation of Sirtuin 2 Inhibitors Employing Photoswitchable Geometry and Aqueous Solubility” (Chemmedchem, 2020).
Values joined by “and” are separate entries in the source; they are usually repeats but may differ in a detail not shown here. Equal values may be shown once. Read-outs that look alike come from different tables or passages of the source.

Key:
Type in all cases: biochemical
Sirt2 = target: T1, Sirt2 (Homo sapiens, UniProt Q8IXJ6); test: Fluorescence-based ZMAL deacetylase activity assay, Sirt2
T1 construct: Expression and purification of Sirt1_133−747, Sirt2_56−356, and Sirt3_118−395 was carried out as described previously; made in house
T1 sequence (Q8IXJ6 56-356): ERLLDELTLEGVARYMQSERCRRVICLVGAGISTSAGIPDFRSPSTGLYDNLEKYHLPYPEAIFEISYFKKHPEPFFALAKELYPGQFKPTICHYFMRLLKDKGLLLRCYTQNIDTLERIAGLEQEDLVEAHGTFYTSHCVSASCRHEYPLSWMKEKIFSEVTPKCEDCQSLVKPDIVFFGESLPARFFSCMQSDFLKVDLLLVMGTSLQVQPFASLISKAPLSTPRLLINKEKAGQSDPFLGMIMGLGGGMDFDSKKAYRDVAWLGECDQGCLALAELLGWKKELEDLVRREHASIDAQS
Method: (§1) The effect of the compounds on deacetylase activity of three human sirtuin isotypes (Sirt1–3) was investigated by a homogeneous fluorescence‐based assay, using (Z)‐Lys(acetyl)‐AMC (ZMAL) as substrate. In order to determine the impact of photoisomerization, the respective compounds were irradiated (365 nm, 5 min) in DMSO prior to incubation in the enzyme assay mixture. The results of the irradiated probes were finally compared to non‐irradiated measurements.
(§2) Cloning, expression and purification of recombinant proteins: Expression and purification of Sirt1_133−747, Sirt2_56−356, and Sirt3_118−395 was carried out as described previously.27 Identity and purity were verified by SDS‐PAGE.
(§3) Fluorescence‐based activity assay: The inhibitory effect of compounds on Sirt1–3 was detected via a previously reported fluorescence‐based assay.29 The synthetic substrate (Z)‐Lys(acetyl)‐AMC (ZMAL) is deacetylated by sirtuins, followed by tryptic digestion and thereby release of 7‐aminomethylcoumarin, leading to a fluorescent readout. Inhibition was determined by comparing percentage substrate conversion to a DMSO control after subtraction of the blank fluorescence signal. All compounds were tested at 100 or 50 μM and 10 μM respectively. […] IC50 values were calculated with OriginPro 9.0 G using a non‐linear regression to fit the dose response curve (Figure S6). An enzyme‐free blank control and a 100 % conversion control using AMC instead of ZMAL were measured as well. Inhibition measurements were performed in biological duplicates for all compounds. […]
(§4) Fluorescence-Based Activity Assay (ZMAL-Assay)
(§5) The influence of the synthesized compounds on the deacetylase activity of the class I sirtuins Sirt1–3 was determined in a homogenous fluorescence-based enzyme assay, using the artificial substrate Z-(Ac)Lys-AMC (ZMAL). ZMAL is processed by sirtuins yielding Z-Lys-AMC.
(§6) The latter is subsequently cleaved by tryptic digestion, releasing 7-amino-4-methylcoumarin (AMC), excitation of which leads to a fluorescent read out (λex=390 nm; λem=460 nm). Instead, […]
(§7) contribute to the fluorescence signal. Therefore, the fluorescence intensity is proportional to the activity of the respective sirtuin.
(§8) After subtraction of the blank fluorescence signal (without enzyme) from the signal of the respective probe, the residual signal intensity is related to a 100 % conversion control (AMC), […]
(§9) yielding the percentage substrate conversion. Comparison of the determined substrate conversion with a no-inhibition DMSO control yields the percentage inhibition at the respective […]
(§10) For determination of IC50, inhibitory activity of the respective compound was determined at 8 to 10 distinct concentrations. The measured values were analysed by a non-linear fit to the dose-response curve using a four parameter logistic model (Figure S6):
(§11) Figure S6: Non-linear regression of the dose-response curves of compounds 15c and 15f at the thermal equilibrium (∆, black) and after 5 minutes of 365 nm irradiation (red). […]
(§12) A maximal polarization control using just DMSO and a minimal polarization control using 1 µL of the 400 µM solution of 22 instead of inhibitor were performed as well as a blank control containing 1 µL of DMSO in 19 µL assay buffer. The mixture was incubated 10 min at 37 °C

Sirt1 = target: T2, Sirt1 (Homo sapiens, UniProt Q96EB6); test: Fluorescence-based ZMAL deacetylase activity assay, Sirt1
T2 construct: Expression and purification of Sirt1_133−747, Sirt2_56−356, and Sirt3_118−395 was carried out as described previously; made in house
T2 sequence (Q96EB6 133-747): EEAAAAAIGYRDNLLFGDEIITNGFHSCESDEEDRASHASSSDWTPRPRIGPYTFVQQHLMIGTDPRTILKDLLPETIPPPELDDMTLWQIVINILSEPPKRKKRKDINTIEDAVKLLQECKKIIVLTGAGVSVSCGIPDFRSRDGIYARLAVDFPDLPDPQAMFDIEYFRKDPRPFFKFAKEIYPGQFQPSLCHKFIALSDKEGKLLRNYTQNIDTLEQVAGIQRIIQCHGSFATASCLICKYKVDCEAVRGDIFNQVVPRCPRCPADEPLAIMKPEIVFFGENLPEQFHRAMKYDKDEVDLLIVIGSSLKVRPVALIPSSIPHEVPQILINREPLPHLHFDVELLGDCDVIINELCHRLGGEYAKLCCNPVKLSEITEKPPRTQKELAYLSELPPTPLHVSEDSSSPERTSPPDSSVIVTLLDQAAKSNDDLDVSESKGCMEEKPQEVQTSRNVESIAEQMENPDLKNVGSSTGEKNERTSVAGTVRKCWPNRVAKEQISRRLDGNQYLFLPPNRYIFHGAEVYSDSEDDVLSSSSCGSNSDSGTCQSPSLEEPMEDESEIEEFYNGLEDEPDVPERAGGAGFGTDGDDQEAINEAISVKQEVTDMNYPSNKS
Method: as §1, §2, §3, §4, §5, §6, §7, §8, §9, §10, §11
A maximal polarization control using just DMSO and a minimal polarization control using 1 µL of the 400 µM solution of 22 instead of inhibitor were performed as well as a blank control containing 1 µL of DMSO in 19 µL assay buffer. The mixture was incubated 10 min at 37 °C […]
(1 picture or pasted object on this page, not shown here)

Sirt3 = target: T3, Sirt3 (Homo sapiens, UniProt Q9NTG7); test: Fluorescence-based ZMAL deacetylase activity assay, Sirt3; design: key to Sirt3 inhibition Δ (class) / Sirt3 inhibition PSS [365 nm] (class): n.i.: no inhibition detected (<30 % @ 100 μM); u.i.: unspecific interactions
T3 construct: Expression and purification of Sirt1_133−747, Sirt2_56−356, and Sirt3_118−395 was carried out as described previously; made in house
T3 sequence (Q9NTG7 118-395): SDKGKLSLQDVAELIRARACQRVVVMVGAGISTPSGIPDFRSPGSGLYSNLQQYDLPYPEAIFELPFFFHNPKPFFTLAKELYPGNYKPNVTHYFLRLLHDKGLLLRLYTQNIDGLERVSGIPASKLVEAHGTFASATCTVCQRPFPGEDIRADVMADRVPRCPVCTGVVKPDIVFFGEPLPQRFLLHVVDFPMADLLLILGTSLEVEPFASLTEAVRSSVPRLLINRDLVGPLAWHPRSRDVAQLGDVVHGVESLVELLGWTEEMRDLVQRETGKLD
Method: as §1, §2, §3, §4, §5, §6, §7, §8, §9, §10, §11, §12

[1] = PSS after 5 min UV irradiation (365 nm), read-out: Sirt2 inhibition PSS [365 nm], percent inhibition (converted)
[2] = thermal equilibrium (Δ), read-out: Sirt2 inhibition Δ, percent inhibition (converted)
[3] = PSS after 5 min UV irradiation (365 nm), read-out: Sirt1 inhibition PSS [365 nm] (class)
[4] = thermal equilibrium (Δ), read-out: Sirt1 inhibition Δ (class)
[5] = PSS after 5 min UV irradiation (365 nm), read-out: Sirt3 inhibition PSS [365 nm], percent inhibition
[6] = thermal equilibrium (Δ), read-out: Sirt3 inhibition Δ, percent inhibition
[7] = PSS after 5 min UV irradiation (365 nm)

SMILES	inhibition at 10 µM (Sirt2; [1])	inhibition at 10 µM (Sirt2; [2])	inhibition at 100 µM (Sirt1; [3])	inhibition at 100 µM (Sirt1; [4])	further results
NC(=O)c1cncc(/N=N/c2c(O)ccc3ccccc23)c1 [7 c]					inhibition at 10 µM (Sirt2; non-irradiated, read-out: Sirt2 inhibition, percent inhibition relative to controls): 55%; Sirt1 inhibition (class) (Sirt1; non-irradiated): n.i. (n.i.: no inhibition detected (<30 % @ 100 μM)); inhibition at 10 µM (Sirt3; non-irradiated, read-out: Sirt3 inhibition, percent inhibition relative to controls): 64%
Cc1cc(/N=N/c2cncc(C(N)=O)c2)cc(C)c1N [7 f]					IC50 (Sirt2; non-irradiated, read-out: Sirt2 inhibition, IC50): 6 µM and 5.8 µM; inhibition at 100 µM (Sirt1; @ 100 μM, non-irradiated, read-out: Sirt1 inhibition, percent inhibition relative to controls): 47%; IC50 (Sirt3; non-irradiated, read-out: Sirt3 inhibition, IC50): 9 µM and 9.4 µM
CC(=O)Nc1c(C)cc(/N=N/c2cncc(C(N)=O)c2)cc1C [9 a]	11%	17%	< 30%	< 30%	inhibition at 100 µM (Sirt2; @ 100 μM, thermal equilibrium (Δ), read-out: Sirt2 inhibition Δ, percent inhibition): 65%; inhibition at 100 µM (Sirt3; [5]): 52%; inhibition at 100 µM (Sirt3; [6]): 68%
CCCC(=O)Nc1c(C)cc(/N=N/c2cncc(C(N)=O)c2)cc1C [9 b]	4%	30%	< 30%	< 30%	inhibition at 100 µM (Sirt3; [5]): 52%; inhibition at 100 µM (Sirt3; [6]): 80%
CCCCCC(=O)Nc1c(C)cc(/N=N/c2cncc(C(N)=O)c2)cc1C [9 c]	24%	40%	< 30%	< 30%	inhibition at 10 µM (Sirt3; [5]): 3%; inhibition at 10 µM (Sirt3; [6]): 20%
CCCCCCCC(=O)Nc1c(C)cc(/N=N/c2cncc(C(N)=O)c2)cc1C [9 d]	54%	26%	< 30%	< 30%	increase of Sirt2 inhibition upon 365 nm irradiation (factor) (Sirt2; PSS 365 nm versus thermal equilibrium): about fivefold; IC50 (Sirt2; PSS after 5 min UV irradiation (365 nm), read-out: Sirt2 inhibition PSS [365 nm], IC50): 7.9 ± 0.7 µM; IC50 (Sirt2; thermal equilibrium (Δ), read-out: Sirt2 inhibition Δ, IC50): 44 ± 9.5 µM; Sirt3 inhibition PSS [365 nm] (class) (Sirt3; [7]): u.i.; Sirt3 inhibition Δ (class) (Sirt3; thermal equilibrium (Δ)): u.i.
CCCCCCCCCC(=O)Nc1c(C)cc(/N=N/c2cncc(C(N)=O)c2)cc1C [9 e]	78%	26%	< 30%	< 30%	Sirt3 inhibition PSS [365 nm] (class) (Sirt3; [7]): u.i.; Sirt3 inhibition Δ (class) (Sirt3; thermal equilibrium (Δ)): u.i.
